Experimental data from article PMC11224556, “Next-generation of BBQ analogues that selectively target breast cancer” (Frontiers in Chemistry, 2024).

What was measured:
[1] = system: HT29 (colorectal) cells; set-up: method as in Gilbert et al., 2020; conditions: HT29, Colon; MTT, 72 h; ref Gilbert et al., 2020; cited from earlier work
[2] = system: U87 (brain) cells; set-up: method as in Gilbert et al., 2020; conditions: U87, Brain (GBM); MTT, 72 h; ref Gilbert et al., 2020; cited from earlier work
[3] = system: BE2-C (neuronal) cells; set-up: method as in Gilbert et al., 2020; conditions: Neuron, MTT, 72 h, ref Gilbert et al., 2020; cited from earlier work
[4] = system: MIA (pancreas) cells; set-up: method as in Gilbert et al., 2020; conditions: MTT, 72 h, ref Gilbert et al., 2020; cited from earlier work
[5] = system: A431 (vulva/skin, ER+) cells; set-up: method as in Gilbert et al., 2020; conditions: MTT, 72 h, ref Gilbert et al., 2020; cited from earlier work
[6] = system: MCF-7 breast cancer cells; set-up: method as in Gilbert et al., 2020; conditions: MCF-7, Breast (ER); MTT, 72 h; ref Gilbert et al., 2020; cited from earlier work
[7] = system: SKBR3 breast cancer cells; set-up: method as in Gilbert et al., 2020; conditions: SKBR3, Breast (HER2); MTT, 72 h; ref Gilbert et al., 2020; cited from earlier work
[8] = system: BT20 breast cancer cells; set-up: method as in Gilbert et al., 2020; conditions: BT20, Breast (TN); MTT, 72 h; ref Gilbert et al., 2020; cited from earlier work
[9] = system: broad panel of cancer cell lines and non-cancer breast cell line MCF10A; conditions: cited from earlier work
[10] = system: AhR mRNA; test: Gene expression analysis (qPCR) in MDA-MB-468 cells; type: cell-based, human; conditions: 1 μM and the GI50 value, 6 h
Protocol: (§1) These analogues were specifically chosen because they were synthesised without the production of regioisomers, their structural differences are small while their biological differences are large, c.f. […] Neither analogue altered the expression of SULT1A1 (Figure 4D).
(§2) Gene expression was examined in MDA-MB-468 cells following 6 h treatment. Total RNA was extracted using the RNeasy Mini Kit (Qiagen) according to the manufacturer’s instructions. One µg of RNA was reverse transcribed using the QuanitTect Reverse Transcription Kit (Qiagen) according to the manufacturer’s instructions. Rotor-Gene SYBR Green PCR Kit (Qiagen) was used to perform qPCR on a Rotor-Gene 3,000 Thermo-Cycler Instrument using β2-microglobulin as a housekeeping gene (Qiagen). The primer sequences were purchased from Qiagen as follows: AhR (QT02422938), CYP1A1 (QT00012341), CYP1B1 (QT00209496), SULT1A1 (QT01665489), and β2M (QT00088935). HotStar Taq activation (95 °C for 5 min) was followed by 40 cycles of denaturation (95 °C for 5 s), and annealing/extension (60 °C for 10 s). The comparative Ct value method was used for data analysis. Results are presented as the mean ± standard error of the mean (SEM) of analysis conducted in duplicate and repeated on two separate occasions. Significant test results were determined using T-test analysis at p < 0.01 with a two tail distribution.

[11] = system: CYP1A1 mRNA; test: as above; type: cell-based, human; conditions: 6 h
Protocol: as §1, §2

[12] = system: CYP1B1 mRNA; test: as above; type: cell-based, human; conditions: 1.0 μM, 6 h
Protocol: as §1, §2

[13] = system: MCF10A normal breast cells; test: MTT growth inhibition with CYP1 (αNF) or SULT1A1 (quercetin) inhibitor; type: cell-based, human; conditions: 3 and 5 at 0.1 µM, αNF 10 µM, quercetin 5 µM, 72 h (Supp Figure 1)
Protocol: (§3) This analysis confirms that both CYP1 and SULT1A1, activity is needed to induce the growth inhibitory effect of the BBQ analogue.
(§4) Cells in logarithmic growth were transferred to 96-well plates. Cytotoxicity was determined by plating cells in duplicate in 100 μL medium at a density of 2,500–4,000 cells/well in 96 well plates. On day 0, (24 h after plating) when the cells were in logarithmic growth 100 μL medium with or without the test agent was added to each well. After 72 h drug exposure growth inhibitory effects were evaluated using the MTT (3-[4,5-dimethylthiazol-2-yl]-2,5-diphenyltetrazolium bromide) assay with absorbance read at 540 nm. An eight-point dose response curve was produced, using MS Excel software. From these dose-response curves, the GI50 value was calculated, representing the drug concentration at which cell growth is 50% inhibited based on the difference between the optical density values on day 0 and those at the end of drug exposure ([Bradshaw et al., 2008]; [Zhang et al., 2009]). Each data point was conducted in duplicate and the mean ± S.E.M. calculated from four to five replicates (n = 4 or 5), which were performed on separate occasions and separate cell line passages. Where shown, significant test results were determined using T-test analysis at p < 0.01 and p < 0.05 with a two tail distribution.
Supp Figure 1. CYP1 and SULT1A1 inhibition ameliorates the effect of 3 and 5. Growth inhibition (72 h, MTT assay) of 3 and 5 (0.1 µM) in the presence of the CYP1 family inhibitor, α-naphthoflavone (αNF, 10 µM) and SULT1A1 inhibitor, quercetin (qu, 5 µM) in (A) MDA-MB-468 breast cancer cells and (B) MCF10A normal breast cells. Significant differences are at the P < 0.01 ** level, using a paired T-test with a two-tailed distribution.

[14] = system: MDA-MB-468 breast cancer cells; test: MTT growth inhibition with co-administered CYP1 (αNF) or SULT1A1 (quercetin) inhibitor; type: cell-based, human; conditions: for fold reduction of growth inhibition (GI50 shift): MDA-MB-468
Protocol: as §3
FIGURE 5 CYP1 and SULT1A1 inhibition ameliorates the effect of 5. Growth inhibition (72 h, MTT assay) of 5 in the presence of the (A) CYP1 family inhibitor, α-naphthoflavone (αNF, 10 μM) and (B) SULT1A1 inhibitor, quercetin (5 μM), in MDA-MB-468 breast cancer cells. […] The effect of αNF and quercetin at the single concentration of 10µM and 5 µM respectively is shown in red as a single value.
as §4
Supp Figure 1. CYP1 and SULT1A1 inhibition ameliorates the effect of 3 and 5. Growth inhibition (72 h, MTT assay) of 3 and 5 (0.1 µM) in the presence of the CYP1 family inhibitor, α-naphthoflavone (αNF, 10 µM) and SULT1A1 inhibitor, quercetin (qu, 5 µM) in (A) MDA-MB-468 breast cancer cells and (B) MCF10A normal breast cells. […]

## Nc1ccccc1N1C(=O)c2cccc3cccc(c23)C1=O [Compound 2, 2-(2-aminophenyl)-1H-benzo[de]isoquinoline-1,3(2H)-dione]
[1]
  GI50: 32 ± 2 µM
[2]
  GI50: > 50 µM
[3]
  GI50: > 50 µM
[4]
  GI50: > 50 µM
[5]
  GI50: 250 ± 120 nM
[6]
  GI50: 700 ± 120 nM
[7]
  GI50: 220 ± 20 nM
[8]
  GI50: 14 ± 1.5 µM
[9]; A431, MCF-7, T47D, ZR-75-1, SKBR3, MDA-MB-468, BT474, ref Gilbert et al., 2020, read-out: GI50 (range over cell lines)
  GI50: 100 to 700 nM
[9]; ref Gilbert et al., 2017, Gilbert et al., 2020
  selective targeting of certain breast cancer cell lines compared with normal breast cells or other tumour types (fold): more than 500 fold

## O=c1c2cccc3cccc(c32)c2nc3ccc(Cl)cc3n12 [Compound 3, 10-Chloro-7H-benzo[de]benzo[4,5]imidazo[2,1-a]isoquinolin-7-one]
[10]
  effect on expression of AhR: not significantly altered
[11]; 0.2 μM
  CYP1A1 Fold change (mRNA vs DMSO control): 18 fold
[11]; 1.0 μM
  CYP1A1 Fold change (mRNA vs DMSO control): 20 fold
[12]
  CYP1B1 Fold change (mRNA vs DMSO control): 3.7 fold
[13]
  effect on growth in normal MCF10A cells: Neither 3, 5, αNF, or quercetin affected growth
[9]; ref Baker et al., 2021a, Elson et al., 2023
  selective in targeting certain breast cancer cell lines compared with normal cells or other tumour types (fold): up to 150 fold

## O=c1c2cccc3cccc(c32)c2nc3ccccc3n12 [Compound 5, 7H-Benzo[de]benzo[4,5]imidazo[2,1-a]isoquinolin-7-one]
[10]
  effect on expression of AhR: not significantly altered
[11]; 0.02 μM
  CYP1A1 Fold change (mRNA vs DMSO control): 12 fold
[11]; 1.0 μM
  CYP1A1 Fold change (mRNA vs DMSO control): 15 fold
[12]
  CYP1B1 Fold change (mRNA vs DMSO control): 4.6 fold
[14]; Homo sapiens, compound alone (no inhibitor), MDA-MB-468, MTT, 72 h
  GI50: 5 nM
[14]; with quercetin 5 μM vs alone
  fold reduction of growth inhibition (GI50 shift): 4.6 fold
[14]; with α-naphthoflavone 10 μM vs alone
  fold reduction of growth inhibition (GI50 shift): 36 fold
[13]
  effect on growth in normal MCF10A cells: Neither 3, 5, αNF, or quercetin affected growth

## O=c1c2cccc3cccc(c4n1Cc1ccccc1N=4)c32 [Compound 13, 7H,9H-benzo[4,5]isoquinolino[1,2-b]quinazolin-7-one]
other
  melting point: 256 to 258 °C
